According to ChEMBL document CHEMBL5506005, “Biochemical and structural characterization of chlorhexidine as an ATP-assisted inhibitor against type 1 methionyl-tRNA synthetase from Gram-positive bacteria” (Eur J Med Chem, 2024):
Each block holds one compound with its values, some of them ahead of it.

What was measured:
[1] = target: T1, Methionine--tRNA ligase (Staphylococcus aureus (strain Mu50 / ATCC 700699), UniProt P67578); assay: Binding affinity to Staphylococcus aureus MetRS expressed in Escherichia coli BL21(DE3) cells assessed as dissociation constant by ITC analysis
[2] = target: T1, Methionine--tRNA ligase; assay: Inhibition of Staphylococcus aureus MetRS expressed in Escherichia coli BL21(DE3) cells measured after 2.5 hrs in presence of ATP by pre-transfer editing assay
[3] = target: T2, Methionine--tRNA ligase (Enterococcus faecalis, UniProt A0A3N3ZFK4); assay: Binding affinity to Enterococcus faecalis type 1 MetRS expressed in Escherichia coli BL21(DE3) cells assessed as dissociation constant in presence of 1 mM ATP by ITC analysis
[4] = target: T1, Methionine--tRNA ligase; assay: Binding affinity to Staphylococcus aureus MetRS expressed in Escherichia coli BL21(DE3) cells assessed as dissociation constant in presence of 50 uM ATP by ITC analysis
[5] = target: T1, Methionine--tRNA ligase; assay: Binding affinity to Staphylococcus aureus MetRS expressed in Escherichia coli BL21(DE3) cells assessed as dissociation constant in presence of ATP/L-Met by ITC analysis
[6] = target: T1, Methionine--tRNA ligase; assay: Binding affinity to Staphylococcus aureus MetRS expressed in Escherichia coli BL21(DE3) cells assessed as dissociation constant in presence of 500 uM ATP by ITC analysis
[7] = target: T2, Methionine--tRNA ligase; assay: Binding affinity to Enterococcus faecalis type 1 MetRS expressed in Escherichia coli BL21(DE3) cells assessed as dissociation constant by ITC analysis
[8] = target: T1, Methionine--tRNA ligase; assay: Binding affinity to Staphylococcus aureus MetRS expressed in Escherichia coli BL21(DE3) cells assessed as dissociation constant in presence of 1 mM ADP by ITC analysis
[9] = target: T2, Methionine--tRNA ligase; assay: Inhibition of Enterococcus faecalis type 1 MetRS expressed in Escherichia coli BL21(DE3) cells measured after 1.5 hrs in presence of ATP by pre-transfer editing assay
[10] = target: T1, Methionine--tRNA ligase; assay: Binding affinity to Staphylococcus aureus MetRS expressed in Escherichia coli BL21(DE3) cells assessed as dissociation constant in presence of 20 uM ATP by ITC analysis
[11] = target: T1, Methionine--tRNA ligase; assay: Binding affinity to Staphylococcus aureus MetRS expressed in Escherichia coli BL21(DE3) cells assessed as dissociation constant in presence of 1 mM AMP by ITC analysis
[12] = target: T1, Methionine--tRNA ligase; assay: Binding affinity to Staphylococcus aureus MetRS expressed in Escherichia coli BL21(DE3) cells assessed as dissociation constant in presence of 1 mM ATP by ITC analysis
[13] = target: Methionine--tRNA ligase (Staphylococcus aureus (strain Mu50 / ATCC 700699)) (UniProt P67578); assay: Binding affinity to Staphylococcus aureus MetRS expressed in Escherichia coli BL21(DE3) cells assessed as change in melting temperature at 100 uM incubated for 10 mins followed by heat treatment by SYPRO orange dye based TSA (reference value: 53.7 degreeC)
[14] = target: Methionine--tRNA ligase (Staphylococcus aureus (strain Mu50 / ATCC 700699)) (UniProt P67578); assay: Inhibition of Staphylococcus aureus MetRS expressed in Escherichia coli BL21(DE3) cells at 100 uM measured after 2.5 hrs in presence of ATP by pre-transfer editing assay relative to control
[15] = target: Methionine--tRNA ligase (Staphylococcus aureus (strain Mu50 / ATCC 700699)) (UniProt P67578); assay: Binding affinity to Staphylococcus aureus MetRS expressed in Escherichia coli BL21(DE3) cells assessed as change in melting temperature at 100 uM incubated for 10 mins followed by heat treatment in presence of 2 mM ATP by SYPRO orange dye based TSA (reference value: 56.4 degreeC)
[16] = target: Methionine--tRNA ligase (Staphylococcus aureus (strain Mu50 / ATCC 700699)) (UniProt P67578); assay: Binding affinity to Staphylococcus aureus MetRS expressed in Escherichia coli BL21(DE3) cells assessed as thermal stability by measuring change in melting temperature incubated for 10 mins followed by heat treatment in presence of 2 mM ATP by SYPRO orange dye based TSA
[17] = target: Methionine--tRNA ligase (Staphylococcus aureus (strain Mu50 / ATCC 700699)) (UniProt P67578); assay: Binding affinity to Staphylococcus aureus MetRS expressed in Escherichia coli BL21(DE3) cells assessed as change in Gibbs free energy by ITC analysis
[18] = target: Methionine--tRNA ligase (Staphylococcus aureus (strain Mu50 / ATCC 700699)) (UniProt P67578); assay: Binding affinity to Staphylococcus aureus MetRS expressed in Escherichia coli BL21(DE3) cells assessed as change in entropy by ITC analysis
[19] = target: Methionine--tRNA ligase (Staphylococcus aureus (strain Mu50 / ATCC 700699)) (UniProt P67578); assay: Binding affinity to Staphylococcus aureus MetRS expressed in Escherichia coli BL21(DE3) cells assessed as change in enthalpy in presence of 1 mM ATP by ITC analysis
[20] = target: Methionine--tRNA ligase (Staphylococcus aureus (strain Mu50 / ATCC 700699)) (UniProt P67578); assay: Binding affinity to Staphylococcus aureus MetRS expressed in Escherichia coli BL21(DE3) cells assessed as change in entropy in presence of 1 mM ATP by ITC analysis
[21] = target: Methionine--tRNA ligase (Staphylococcus aureus (strain Mu50 / ATCC 700699)) (UniProt P67578); assay: Binding affinity to Staphylococcus aureus MetRS expressed in Escherichia coli BL21(DE3) cells assessed as change in Gibbs free energy in presence of 50 uM ATP by ITC analysis
[22] = target: Methionine--tRNA ligase (Staphylococcus aureus (strain Mu50 / ATCC 700699)) (UniProt P67578); assay: Binding affinity to Staphylococcus aureus MetRS expressed in Escherichia coli BL21(DE3) cells assessed as change in enthalpy in presence of 50 uM ATP by ITC analysis
[23] = target: Methionine--tRNA ligase (Staphylococcus aureus (strain Mu50 / ATCC 700699)) (UniProt P67578); assay: Binding affinity to Staphylococcus aureus MetRS expressed in Escherichia coli BL21(DE3) cells assessed as change in entropy in presence of 50 uM ATP by ITC analysis
[24] = target: Methionine--tRNA ligase (Staphylococcus aureus (strain Mu50 / ATCC 700699)) (UniProt P67578); assay: Binding affinity to Staphylococcus aureus MetRS expressed in Escherichia coli BL21(DE3) cells assessed as change in Gibbs free energy in presence of 1 mM ATP by ITC analysis
[25] = target: Methionine--tRNA ligase (Staphylococcus aureus (strain Mu50 / ATCC 700699)) (UniProt P67578); assay: Binding affinity to Staphylococcus aureus MetRS expressed in Escherichia coli BL21(DE3) cells assessed as change in entropy in presence of 20 uM ATP by ITC analysis
[26] = target: Methionine--tRNA ligase (Staphylococcus aureus (strain Mu50 / ATCC 700699)) (UniProt P67578); assay: Binding affinity to Staphylococcus aureus MetRS expressed in Escherichia coli BL21(DE3) cells assessed as change in enthalpy in presence of 20 uM ATP by ITC analysis
[27] = target: Methionine--tRNA ligase (Staphylococcus aureus (strain Mu50 / ATCC 700699)) (UniProt P67578); assay: Binding affinity to Staphylococcus aureus MetRS expressed in Escherichia coli BL21(DE3) cells assessed as change in Gibbs free energy in presence of 20 uM ATP by ITC analysis
[28] = target: Methionine--tRNA ligase (Staphylococcus aureus (strain Mu50 / ATCC 700699)) (UniProt P67578); assay: Binding affinity to Staphylococcus aureus MetRS expressed in Escherichia coli BL21(DE3) cells assessed as change in enthalpy by ITC analysis

T2 sequence (A0A3N3ZFK4 whole entry): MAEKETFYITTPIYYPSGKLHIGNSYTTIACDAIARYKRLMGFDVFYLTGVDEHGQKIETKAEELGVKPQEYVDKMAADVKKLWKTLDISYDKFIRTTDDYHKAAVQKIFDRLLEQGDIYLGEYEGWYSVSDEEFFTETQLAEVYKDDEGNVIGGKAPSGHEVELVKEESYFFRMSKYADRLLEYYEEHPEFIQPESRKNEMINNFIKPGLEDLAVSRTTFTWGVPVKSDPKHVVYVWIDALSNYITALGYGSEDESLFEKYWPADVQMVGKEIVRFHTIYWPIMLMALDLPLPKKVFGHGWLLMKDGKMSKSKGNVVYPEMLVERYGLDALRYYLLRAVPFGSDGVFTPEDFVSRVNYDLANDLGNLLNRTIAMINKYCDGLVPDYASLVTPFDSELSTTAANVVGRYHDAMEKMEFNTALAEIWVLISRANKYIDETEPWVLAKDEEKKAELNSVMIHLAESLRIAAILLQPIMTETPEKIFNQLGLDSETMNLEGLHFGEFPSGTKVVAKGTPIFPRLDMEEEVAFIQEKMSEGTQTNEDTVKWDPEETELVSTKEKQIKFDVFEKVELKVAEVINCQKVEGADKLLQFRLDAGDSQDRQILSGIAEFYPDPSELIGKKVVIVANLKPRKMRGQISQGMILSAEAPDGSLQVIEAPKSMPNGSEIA

Kd [1]: 10200 nM
IC50 [2]: 30800 nM
Kd [3]: 300 nM
Kd [4]: 1210 nM
Kd [5]: 4190 nM
Kd [6]: 593 nM
Kd [7]: 5040 nM
Kd [8]: 1900 nM
IC50 [9]: 8500 nM
Kd [10]: 3100 nM
Kd [11]: 6 nM
Kd [12]: 450 nM
SMILES: [H]/N=C(\N/C(=N/[H])NCCCCCCNC(=N)NC(=N)Nc1ccc(Cl)cc1)Nc1ccc(Cl)cc1 [CHLORHEXIDINE]

ΔTm [13]: 16.2 °C
inhibition [14]: > 99%
ΔTm [15]: 20.3 °C
SMILES: C=C(F)c1sc(CNCCCNc2cc(=O)c3ccccc3[nH]2)c(C)c1Br

Kd [1]: 4920 nM
IC50 [2]: 17300 nM
Kd [3]: 150 nM
Kd [4]: 493 nM
Kd [7]: 2700 nM
IC50 [9]: 16100 nM
Kd [10]: 1370 nM
Kd [12]: 452 nM
SMILES: [H]/N=C(/NCCCCN/C(=N/[H])N/C(=N/[H])Nc1ccc(Cl)cc1)N/C(=N/[H])Nc1ccc(Cl)cc1

ΔTm [16]: 9 °C
deltaG [17]: -7.24 kcal/mol
-TdeltaS [18]: 1.94 kcal/mol
deltaH [19]: -14.4 kcal/mol
-TdeltaS [20]: 6.23 kcal/mol
deltaG [21]: -8.61 kcal/mol
deltaH [22]: -15.7 kcal/mol
-TdeltaS [23]: 7.28 kcal/mol
deltaG [24]: -8.7 kcal/mol
-TdeltaS [25]: 11.3 kcal/mol
deltaH [26]: -18 kcal/mol
deltaG [27]: -8 kcal/mol
deltaH [28]: -8.62 kcal/mol
SMILES: N=C(NCCCCNC(=N)NC(=N)Nc1ccc(Cl)cc1)NC(=N)Nc1ccc(Cl)cc1
